The nature of data set [1]: AUC (0 to 24 hrs) in plasma of C57BL/6J mouse at 20 mg/kg, po measured for 24 hrs. It counts as ADME, organism-based.
Data set [2] has as its target T1, Bifunctional epoxide hydrolase 2 (Mus musculus, UniProt P34914).
T1 sequence (P34914 whole entry): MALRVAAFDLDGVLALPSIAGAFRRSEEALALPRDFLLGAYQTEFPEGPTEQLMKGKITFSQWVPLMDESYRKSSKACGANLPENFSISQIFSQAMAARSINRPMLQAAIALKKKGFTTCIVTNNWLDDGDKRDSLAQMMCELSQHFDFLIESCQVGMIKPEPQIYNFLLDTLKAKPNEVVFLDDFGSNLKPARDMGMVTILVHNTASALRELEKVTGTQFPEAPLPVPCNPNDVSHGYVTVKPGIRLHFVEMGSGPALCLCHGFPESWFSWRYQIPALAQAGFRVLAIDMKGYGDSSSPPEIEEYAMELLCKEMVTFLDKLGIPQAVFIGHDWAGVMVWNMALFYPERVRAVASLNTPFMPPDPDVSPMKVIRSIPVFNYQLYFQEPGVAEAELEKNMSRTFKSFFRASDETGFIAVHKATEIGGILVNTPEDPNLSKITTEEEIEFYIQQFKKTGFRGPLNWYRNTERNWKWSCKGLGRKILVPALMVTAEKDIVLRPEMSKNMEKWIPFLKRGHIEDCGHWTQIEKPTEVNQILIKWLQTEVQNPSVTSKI
Put plainly: biochemical.
Description: Inhibition of C57BL/6J mouse brain sEH using 14,15-EET as substrate preincubated for 15 mins followed by substrate addition by HPLC-MS analysis

We go through 1 compound from ChEMBL document CHEMBL6109155, “Discovery of Phenylacylpiperidine as Novel sEH Inhibitors through Scaffold Hopping of Natural Stilbene” (J Med Chem, 2025).

Structures are written as SMILES.

Broadly, the AUC(0-t) is the area under the concentration-time curve up to a stated or last time point. Read a high AUC(0-t) as high exposure. One may read the IC50 as the concentration needed to halve the response being measured. With `COc1cc(CC(=O)N2CCC(NC(=O)NCc3ccc(OC(F)(F)F)cc3)CC2)cc(OC)c1`, in data set [1], the AUC(0-t) at 24 h was found to be 532 ng·h/mL. Moreover, the IC50 in data set [2] turned out to be 0.51 nM.
